This data set relates to CCRIS mutagenicity, Ames/micronucleus/aberration tests. Briefly: CCRIS mutagenicity studies.
Setting [1] is: Test System: AMES SALMONELLA TYPHIMURIUM, Strain/Indicator: TA100, Metabolic Activation: NONE, Method: STANDARD PLATE.
Where [2] appears, read: Test System: AMES SALMONELLA TYPHIMURIUM, Strain/Indicator: TA98, Metabolic Activation: NONE, Method: PREINCUBATION
The mark [3] stands for this setting: Test System: AMES SALMONELLA TYPHIMURIUM, Strain/Indicator: TA98, Metabolic Activation: RAT, LIVER, S-9, AROCLOR 1254, Method: PREINCUBATION
[4] abbreviates: Test System: AMES SALMONELLA TYPHIMURIUM, Strain/Indicator: TA100, Metabolic Activation: NONE, Method: PREINCUBATION
The mark [5] stands for this setting: Test System: AMES SALMONELLA TYPHIMURIUM, Strain/Indicator: TA100, Metabolic Activation: RAT, LIVER, S-9, AROCLOR 1254, Method: PREINCUBATION
[6] abbreviates: Test System: AMES SALMONELLA TYPHIMURIUM, Strain/Indicator: TA1537, Metabolic Activation: NONE, Method: PREINCUBATION
The mark [7] stands for this setting: Test System: AMES SALMONELLA TYPHIMURIUM, Strain/Indicator: TA1537, Metabolic Activation: RAT, LIVER, S-9, AROCLOR 1254, Method: PREINCUBATION
Where [8] appears, read: Test System: AMES SALMONELLA TYPHIMURIUM, Strain/Indicator: TA98, Metabolic Activation: RAT, LIVER, S-9, PCB, Method: PREINCUBATION
The mark [9] stands for this setting: Test System: AMES SALMONELLA TYPHIMURIUM, Strain/Indicator: TA100, Metabolic Activation: RAT, LIVER, S-9, PCB, Method: PREINCUBATION

Activity calls are given as the source filed them. The rule behind the calls is not given here.

In the case of `O=C(O)COc1ccc(C(=O)c2cccs2)c(Cl)c1Cl`, the mutagenic call runs as follows: (Test System: AMES SALMONELLA TYPHIMURIUM, Strain/Indicator: TA100(FR1), Metabolic Activation: NONE, Method: STANDARD PLATE) “inactive; negative”; (Test System: AMES SALMONELLA TYPHIMURIUM, Strain/Indicator: TA100(FR1), Metabolic Activation: RAT, LIVER, S-9, PHENOBARBITAL AND 3-METHYLCHOLANTHRENE, Method: STANDARD PLATE) “inactive; negative”; under setting [1], “inactive; negative”; (Test System: AMES SALMONELLA TYPHIMURIUM, Strain/Indicator: TA100, Metabolic Activation: RAT, LIVER, S-9, PHENOBARBITAL AND 3-METHYLCHOLANTHRENE, Method: STANDARD PLATE) “inactive; negative”; (Test System: CHINESE HAMSTER V-79, Strain/Indicator: V-79/6-THIOGUANINE, Metabolic Activation: NONE) “inactive; negative”; (Test System: CHINESE HAMSTER V-79, Strain/Indicator: V-79/6-THIOGUANINE, Metabolic Activation: RAT, LIVER, HEPATOCYTES (SHERMAN OR SPRAGUE-DAWLEY RATS)) “inactive; negative”. Moreover, the mutagenic call was “active; positive” (Test System: CHINESE HAMSTER V-79, Strain/Indicator: V-79/OUABAIN, Metabolic Activation: NONE) and “active; positive” (Test System: CHINESE HAMSTER V-79, Strain/Indicator: V-79/OUABAIN, Metabolic Activation: RAT, LIVER, HEPATOCYTES (SHERMAN OR SPRAGUE-DAWLEY RATS)).
In the case of `Cc1c(/C=N/OCc2cccc([N+](=O)[O-])c2)c2cc([N+](=O)[O-])ccc2n1Cc1ccccc1`, the mutagenic call was “active; positive” (Test System: AMES SALMONELLA TYPHIMURIUM, Strain/Indicator: TA98, Metabolic Activation: NONE, Method: STANDARD PLATE); “active; positive” (Test System: AMES SALMONELLA TYPHIMURIUM, Strain/Indicator: TA98, Metabolic Activation: RAT, LIVER, S-9, PHENOBARBITAL AND BETA-NAPHTHOFLAVONE, Method: STANDARD PLATE); “active; positive” under setting [1]; “active; positive” (Test System: AMES SALMONELLA TYPHIMURIUM, Strain/Indicator: TA100, Metabolic Activation: RAT, LIVER, S-9, PHENOBARBITAL AND BETA-NAPHTHOFLAVONE, Method: STANDARD PLATE).
With `CC1CNCC(C)O1` (stereo not given), the mutagenic call (Test System: AMES SALMONELLA TYPHIMURIUM, Strain/Indicator: TA98, Metabolic Activation: HAMSTER, LIVER, S-9, AROCLOR 1254, Method: PREINCUBATION) was “inactive; negative”; the mutagenic call under setting [2] was “inactive; negative”; the mutagenic call under setting [3] was “inactive; negative”; the mutagenic call (Test System: AMES SALMONELLA TYPHIMURIUM, Strain/Indicator: TA100, Metabolic Activation: HAMSTER, LIVER, S-9, AROCLOR 1254, Method: PREINCUBATION) was “inactive; negative”; the mutagenic call under setting [4] is “inactive; negative”; the mutagenic call under setting [5] was “inactive; negative”. Besides, the mutagenic call (Test System: AMES SALMONELLA TYPHIMURIUM, Strain/Indicator: TA1537, Metabolic Activation: HAMSTER, LIVER, S-9, AROCLOR 1254, Method: PREINCUBATION) is “inactive; negative”; the mutagenic call under setting [6] is “inactive; negative”; the mutagenic call under setting [7] is “inactive; negative”.
For the molecule `Clc1ccc(CN2[C@@H]3c4ccccc4-c4ccccc4[C@@H]32)cc1` (stereo not given in full), under setting [1], the mutagenic call was “active; positive”.
Regarding `[Be]=[O]`, the mutagenic call is, setting by setting: under setting [2], “inactive; negative”; (Test System: AMES SALMONELLA TYPHIMURIUM, Strain/Indicator: TA98, Metabolic Activation: RAT, LIVER, S-9 (10%), Method: PREINCUBATION) “inactive; negative”; under setting [4], “inactive; negative”; (Test System: AMES SALMONELLA TYPHIMURIUM, Strain/Indicator: TA100, Metabolic Activation: RAT, LIVER, S-9 (10%), Method: PREINCUBATION) “inactive; negative”.
On to `CCOCc1c(O)cc2c(c1O)C(=O)c1ccccc1C2=O`, for which the mutagenic call by setting is: (Test System: AMES SALMONELLA TYPHIMURIUM, Strain/Indicator: TA97, Metabolic Activation: NONE, Method: PREINCUBATION) “inactive; negative”; (Test System: AMES SALMONELLA TYPHIMURIUM, Strain/Indicator: TA97, Metabolic Activation: RAT, LIVER, S-9, AROCLOR 1254, Method: PREINCUBATION) “active; positive”; under setting [2], “active; positive”; under setting [3], “active; positive”; under setting [8], “active; positive”; under setting [4], “active; positive”. In addition, the mutagenic call was “active; positive” under setting [5]; “active; positive” under setting [9]; “active; positive” (Test System: AMES SALMONELLA TYPHIMURIUM, Strain/Indicator: TA102, Metabolic Activation: NONE, Method: PREINCUBATION); “active; positive” (Test System: AMES SALMONELLA TYPHIMURIUM, Strain/Indicator: TA102, Metabolic Activation: RAT, LIVER, S-9, Method: PREINCUBATION); “active; positive” under setting [6]; “active; positive” under setting [7]. Further, the mutagenic call (Test System: AMES SALMONELLA TYPHIMURIUM, Strain/Indicator: TA1537, Metabolic Activation: RAT, LIVER, S-9, Method: PREINCUBATION) is “active; positive”; the mutagenic call (Test System: CHINESE HAMSTER V-79, Strain/Indicator: V-79/8-AZAGUANINE, Metabolic Activation: NONE, Method: STANDARD PLATE) was “inactive; negative”; the mutagenic call (Test System: CHINESE HAMSTER V-79, Strain/Indicator: V-79/8-AZAGUANINE, Metabolic Activation: PRIMARY RAT HEPATOCYTES, Method: STANDARD PLATE) was “active; positive”.
Regarding `O[Te](O)(O)(O)(O)O`, the mutagenic call (End Point: IN VITRO MICRONUCLEUS, Test System: HUMAN PERIPHERAL LYMPHOCYTES, Metabolic Activation: NONE, Method: FISH (CENTROMERIC SIGNAL CONTENT)) is “active; positive”.
Take `C=C1[C@H](O)[C@@]23CC[C@H]4[C@@](C)(CCC[C@@]4(C)C(=O)O)[C@@H]2CC[C@]1(O)C3`: the mutagenic call (Test System: AMES SALMONELLA TYPHIMURIUM, Strain/Indicator: TM677, Metabolic Activation: RAT, LIVER, S-9, AROCLOR 1254, Method: PREINCUBATION) is “inactive; negative”.
`C1CN2CCN1CC2`: the mutagenic call reads like this: under setting [2], “inactive; negative”; under setting [8], “inactive; negative”; under setting [4], “inactive; negative”; under setting [9], “inactive; negative”.
`NC(=O)C1(N2CCCCC2)CCN(CCCC(=O)c2ccc(F)cc2)CC1`: the mutagenic call (End Point: IN VITRO CHROMOSOMAL ABERRATIONS, Test System: HUMAN LYMPHOCYTES, Metabolic Activation: NONE) was “inactive; negative”.
As to `CSCCC=O`, the mutagenic call is “inactive; negative” under setting [2]; “inactive; negative” (Test System: AMES SALMONELLA TYPHIMURIUM, Strain/Indicator: TA98, Metabolic Activation: RAT LIVER S-9, AROCLOR 1254, Method: PREINCUBATION); “inactive; negative” under setting [4]; “inactive; negative” (Test System: AMES SALMONELLA TYPHIMURIUM, Strain/Indicator: TA100, Metabolic Activation: RAT LIVER S-9, AROCLOR 1254, Method: PREINCUBATION); “inactive; negative” (Test System: AMES SALMONELLA TYPHIMURIUM, Strain/Indicator: TA1535, Metabolic Activation: NONE, Method: PREINCUBATION); “inactive; negative” (Test System: AMES SALMONELLA TYPHIMURIUM, Strain/Indicator: TA1535, Metabolic Activation: RAT LIVER S-9, AROCLOR 1254, Method: PREINCUBATION). Moreover, the mutagenic call was “inactive; negative” under setting [6]; “inactive; negative” (Test System: AMES SALMONELLA TYPHIMURIUM, Strain/Indicator: TA1537, Metabolic Activation: RAT LIVER S-9, AROCLOR 1254, Method: PREINCUBATION); “inactive; negative” (Test System: AMES SALMONELLA TYPHIMURIUM, Strain/Indicator: TA1538, Metabolic Activation: NONE, Method: PREINCUBATION); “inactive; negative” (Test System: AMES SALMONELLA TYPHIMURIUM, Strain/Indicator: TA1538, Metabolic Activation: RAT LIVER S-9, AROCLOR 1254, Method: PREINCUBATION); “active; positive” (Test System: MOUSE LYMPHOMA, Strain/Indicator: L5178Y (TK+/TK-), Metabolic Activation: NONE, Method: SUSPENSION/PLATE); “active; positive” (Test System: MOUSE LYMPHOMA, Strain/Indicator: L5178Y (TK+/TK-), Metabolic Activation: RAT LIVER S-9, AROCLOR 1254, Method: SUSPENSION/PLATE).
